Here are results for 10 compounds from PubChem BioAssay (NCI).

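Cultured in 96-well plates, cells were exposed to test compound for 48 hours across five concentrations. GI50 is the concentration that inhibits growth by half. At the TGI there is no net growth.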

Test systems include SR leukemia; MOLT-4 leukemia; MDA-MB-435; HOP-62 NSCLC; SK-MEL-2 melanoma; OVCAR-5 ovarian; A498 renal; HT29 colon; HCT-15 colon; HCT-116 colon.
Holding throughout (experiment): DTP human tumour cell line panel, 48 h

Usually TGI stands for the concentration at which net growth stops. Read a low TGI as greater sensitivity of the cells. As usually defined, the GI50 is the concentration giving 50% growth inhibition.

`O=c1cc(-c2cc(O)c(O)c(-c3c(O)cc4oc(-c5ccc(O)c(O)c5)cc(=O)c4c3O)c2)oc2cc(O)cc(O)c12`: the TGI in the assay on SR leukemia, in the assay with MOLT-4 leukemia, in the assay on MDA-MB-435, with HOP-62 NSCLC, in the assay with SK-MEL-2 melanoma and with OVCAR-5 ovarian was greater than 25 µM each time. For the same compound, the TGI with A498 renal, with HT29 colon, with HCT-15 colon and with HCT-116 colon was greater than 25 µM throughout.

As for `COC(=O)c1cc(C#N)[nH]c1-c1cc(Br)cs1`, the TGI in the assay on SR leukemia was greater than 66.3 µM; in the assay with MOLT-4 leukemia it was 50.8 µM; in the assay with MDA-MB-435, 31.5 µM; in the assay with HOP-62 NSCLC, 29.9 µM; in the assay on SK-MEL-2 melanoma, 35.2 µM; with OVCAR-5 ovarian it was 55.7 µM. The TGI with A498 renal turned out to be 18.4 µM; in the assay with HT29 colon, 31.7 µM; in the assay with HCT-15 colon, 33.2 µM; in the assay on HCT-116 colon, 28.3 µM.

Regarding `O=C1NCN(c2ccccc2)C12CCN(CCCN1CCN(CCOC(c3ccc(F)cc3)c3ccc(F)cc3)CC1)CC2`, the TGI in the assay on SR leukemia was 6.67 µM; in the assay on MOLT-4 leukemia it was 15.1 µM; with MDA-MB-435 it was 3.26 µM; with HOP-62 NSCLC, 3.81 µM; with SK-MEL-2 melanoma it was 3.71 µM; in the assay with OVCAR-5 ovarian it was 11.4 µM. Further, the TGI is 3.35 µM in the assay with A498 renal, 3.97 µM in the assay on HT29 colon, 5.3 µM in the assay on HCT-15 colon and 3.32 µM in the assay with HCT-116 colon.

Regarding `CCOC(=O)C#Cc1ccccc1`, the TGI amounted to 4.76 µM in the assay with SR leukemia; 12.8 µM with MOLT-4 leukemia; 45.6 µM with MDA-MB-435; 46.3 µM in the assay on HOP-62 NSCLC; 5.86 µM in the assay on SK-MEL-2 melanoma; 19.3 µM in the assay with OVCAR-5 ovarian. The TGI was 75.3 µM with A498 renal, 21.4 µM in the assay with HT29 colon, greater than 100 µM with HCT-15 colon and 17.7 µM in the assay on HCT-116 colon.

Regarding `CCOC(=O)c1nc2cc(C(F)(F)F)ccc2nc1Nc1ccc(C(=O)NC(C(=O)OCC)C(=O)OCC)cc1`, the TGI in the assay on SR leukemia is greater than 100 µM; with MOLT-4 leukemia, greater than 100 µM; in the assay with MDA-MB-435 it was greater than 100 µM; in the assay on HOP-62 NSCLC it was 41 µM; in the assay with SK-MEL-2 melanoma, greater than 100 µM; in the assay with OVCAR-5 ovarian, greater than 100 µM. Also, the TGI in the assay on A498 renal is 50.3 µM; with HT29 colon, greater than 100 µM; in the assay on HCT-15 colon it was greater than 100 µM; with HCT-116 colon it was 37.4 µM.

As to `S=c1cc(-c2ccc3c(c2)OCO3)s[nH]1`, the TGI with SR leukemia, with MOLT-4 leukemia, with MDA-MB-435, with HOP-62 NSCLC, with SK-MEL-2 melanoma and with OVCAR-5 ovarian was greater than 100 µM throughout. The TGI in the assay on A498 renal, with HT29 colon, with HCT-15 colon and in the assay on HCT-116 colon was greater than 100 µM throughout.

`COC(=O)C1(Cc2ccc3c(c2)CCC3)Cc2ccccc2C1`: the TGI was greater than 100 µM in the assay on SR leukemia; 31 µM in the assay with MOLT-4 leukemia; greater than 100 µM in the assay with MDA-MB-435; greater than 100 µM with HOP-62 NSCLC; 72 µM in the assay with SK-MEL-2 melanoma; greater than 100 µM in the assay with OVCAR-5 ovarian. For the same compound, the TGI in the assay on A498 renal was greater than 100 µM; in the assay on HT29 colon, 65 µM; in the assay on HCT-15 colon, greater than 100 µM; with HCT-116 colon it was greater than 100 µM.

Consider `COc1cc(/C=C/C=C2\CC/C(=C\C=C\c3ccc(O)c(OC)c3)C2=O)ccc1O`, for which the TGI in the assay with SR leukemia is 17.9 µM; in the assay on MOLT-4 leukemia it was 22.2 µM; in the assay with MDA-MB-435 it was greater than 100 µM; in the assay on HOP-62 NSCLC, greater than 100 µM; in the assay with SK-MEL-2 melanoma, greater than 100 µM; in the assay on OVCAR-5 ovarian it was greater than 100 µM. Moreover, the TGI in the assay with A498 renal, in the assay with HT29 colon, in the assay with HCT-15 colon and with HCT-116 colon was greater than 100 µM each time.

Take `COc1ccc(CN2C3CC2CN(c2ccc(-c4cc(OCC(C)(C)O)cn5ncc(C#N)c45)cn2)C3)cn1`: the GI50 with SR leukemia was 4.45 µM; in the assay with MOLT-4 leukemia it was 52.9 µM; in the assay on MDA-MB-435, greater than 100 µM; with HOP-62 NSCLC it was 4.72 µM; in the assay on SK-MEL-2 melanoma, greater than 100 µM; in the assay with OVCAR-5 ovarian it was greater than 100 µM. Also, the GI50 is 0.51 µM with A498 renal, 8.09 µM with HT29 colon, 37.2 µM in the assay on HCT-15 colon and 8.06 µM in the assay with HCT-116 colon. For the same compound, the TGI in the assay on SR leukemia is greater than 100 µM; in the assay with MOLT-4 leukemia it was greater than 100 µM; with MDA-MB-435, greater than 100 µM; in the assay with HOP-62 NSCLC, 47.6 µM; in the assay with SK-MEL-2 melanoma, greater than 100 µM; in the assay on OVCAR-5 ovarian, greater than 100 µM. The TGI with A498 renal was 3.7 µM; in the assay with HT29 colon, greater than 100 µM; with HCT-15 colon, greater than 100 µM; with HCT-116 colon it was greater than 100 µM.

As to `C[n+]1c(-c2ccc(/C=C/C=N\NC(=O)c3ccc(C(=O)N/N=C\C=C\c4ccc(-c5cn6ccccc6[n+]5C)cc4)cc3)cc2)cn2ccccc21`, the TGI with SR leukemia is 42.3 µM; in the assay on MOLT-4 leukemia it was greater than 100 µM; in the assay with MDA-MB-435 it was greater than 100 µM; in the assay on HOP-62 NSCLC, greater than 100 µM; in the assay on SK-MEL-2 melanoma it was greater than 100 µM; in the assay with OVCAR-5 ovarian it was greater than 100 µM. Also, the TGI in the assay with A498 renal, in the assay with HT29 colon, in the assay with HCT-15 colon and in the assay on HCT-116 colon was greater than 100 µM in each case.
